In publication PMC4300089, “Structure-Guided Design of Selective Epac1 and Epac2 Agonists” (PLoS Biology, 2015):
Positions count from the first letter of the chain named. “And” between values parts separate entries of the source, which are not always exact repeats. Equal entries are not always repeated.

Tests used:
Format in all cases: biochemical
Epac2^Δ280 = biological target: T1, Epac2^Δ280 (Mus musculus, UniProt Q9EQZ6); experiment: Epac activation assay (Rap1B•mGDP fluorescence nucleotide exchange), Epac2^Δ280; conditions: for AC50 / Rel. kmax: Epac2^Δ280; for Rel. kmax: maximal activity relative to cAMP
T1 construct: made in house
T1 sequence (Q9EQZ6 281-993 isoform Q9EQZ6-3): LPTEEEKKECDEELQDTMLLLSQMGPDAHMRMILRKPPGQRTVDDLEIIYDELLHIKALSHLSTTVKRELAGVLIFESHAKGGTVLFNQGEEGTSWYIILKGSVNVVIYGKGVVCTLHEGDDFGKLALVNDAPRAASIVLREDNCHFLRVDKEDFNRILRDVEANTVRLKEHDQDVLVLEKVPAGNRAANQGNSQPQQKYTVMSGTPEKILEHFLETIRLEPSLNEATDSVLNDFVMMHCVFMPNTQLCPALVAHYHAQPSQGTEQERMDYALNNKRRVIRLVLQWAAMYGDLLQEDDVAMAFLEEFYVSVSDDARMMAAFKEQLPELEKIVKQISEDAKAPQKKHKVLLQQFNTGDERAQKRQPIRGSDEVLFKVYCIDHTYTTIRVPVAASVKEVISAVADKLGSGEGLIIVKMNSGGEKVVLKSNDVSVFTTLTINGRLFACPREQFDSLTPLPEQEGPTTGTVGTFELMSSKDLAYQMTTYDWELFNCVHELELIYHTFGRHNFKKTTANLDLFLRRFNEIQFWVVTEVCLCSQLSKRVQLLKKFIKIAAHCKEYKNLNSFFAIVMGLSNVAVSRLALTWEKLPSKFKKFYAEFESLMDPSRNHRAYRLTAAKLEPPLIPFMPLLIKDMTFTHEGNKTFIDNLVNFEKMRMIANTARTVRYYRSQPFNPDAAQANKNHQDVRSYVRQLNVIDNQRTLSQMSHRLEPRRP
Experimental: (§1) Murine Epac2 was used as all previous structural studies were performed with it.
(§2) The activity of Epac was determined by a fluorescence assay. […] The fluorescence intensity of Rap1B•mGDP is approximately twice that of free mGDP, and thus, nucleotide exchange can be observed as a decay in fluorescence upon the addition of excess unlabeled GDP.

Epac2^Δ280,K450E = biological target: T2, Epac2^Δ280,K450E (Mus musculus, UniProt Q9EQZ6, K468E); experiment: Epac activation assay, Epac2 K450E mutant
T2 construct: made in house
T2 sequence (Q9EQZ6 281-993 isoform Q9EQZ6-3 K450E): T1 sequence (Q9EQZ6 281-993 isoform Q9EQZ6-3) with K170E
Experimental: as §1, §2

PKA-Iα = biological target: T3, PKA-Iα (Homo sapiens, UniProt P10644); experiment: PKA activity assay (coupled spectrophotometric, Kemptide), PKA-Iα; conditions: PKAIα
T3 construct: made in house
Experimental: (§3) The recombinant human PKA catalytic subunit (Cα1) and the four human PKA regulatory subunits (RIα, RIβ, RIIα, RIIβ) were expressed, purified, and characterized as described. […] PKA holoenzymes were formed by mixing the R- and C-subunit at a molar ratio of 1.2:1 and extensive dialysis against 20 mM MOPS (pH 7.0), 150 mM NaCl, 2.5 mM β-mercaptoethanol, supplemented with 1 mM ATP and 10 mM MgCl2 for PKA-I at 4°C overnight. PKA holoenzymes were used at about 20 nM for the activation assay. The apparent activation constants (Kact) were determined by fitting the concentration-dependent activity to a sigmoid dose-response model.

PKA-IIα = biological target: T4, PKA-IIα (Homo sapiens, UniProt P13861); experiment: PKA activity assay, PKA-IIα; conditions: PKAIIα
T4 construct: made in house
Experimental: as §3

T4 sequence (P13861 whole entry): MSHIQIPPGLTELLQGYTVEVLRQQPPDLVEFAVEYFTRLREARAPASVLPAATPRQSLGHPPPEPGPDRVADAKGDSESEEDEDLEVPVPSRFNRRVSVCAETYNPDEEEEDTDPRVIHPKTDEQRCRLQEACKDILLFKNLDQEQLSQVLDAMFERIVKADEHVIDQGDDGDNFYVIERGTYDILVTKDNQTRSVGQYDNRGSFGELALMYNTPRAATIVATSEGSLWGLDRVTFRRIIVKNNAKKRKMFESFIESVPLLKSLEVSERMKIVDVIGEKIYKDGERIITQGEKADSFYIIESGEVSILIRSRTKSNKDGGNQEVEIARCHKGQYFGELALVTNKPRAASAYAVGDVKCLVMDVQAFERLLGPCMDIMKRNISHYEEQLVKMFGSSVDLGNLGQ
T3 sequence (P10644 whole entry): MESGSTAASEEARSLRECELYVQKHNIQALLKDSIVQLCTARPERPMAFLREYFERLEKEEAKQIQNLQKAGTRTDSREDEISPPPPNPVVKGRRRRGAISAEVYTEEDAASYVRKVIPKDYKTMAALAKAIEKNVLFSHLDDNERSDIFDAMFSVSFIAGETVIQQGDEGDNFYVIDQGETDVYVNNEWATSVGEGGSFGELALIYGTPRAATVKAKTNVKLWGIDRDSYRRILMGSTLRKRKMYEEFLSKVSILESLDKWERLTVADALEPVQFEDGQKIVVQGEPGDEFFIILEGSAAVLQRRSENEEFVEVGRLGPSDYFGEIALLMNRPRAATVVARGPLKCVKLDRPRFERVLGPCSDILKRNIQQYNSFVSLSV

Molecule Nc1ncnc2c1ncn2C1OC2COP(O)(=S)OC2C1O (stereo not shown) [S-000, Sp-cAMPS] has a kobs (Epac2^Δ280; 0.01 μM compound) of 2.4e-05 s⁻¹, a kobs (Epac2^Δ280; 0.05 μM compound) of 3.7e-05 s⁻¹ and a kobs (Epac2^Δ280; 0.08 μM compound) of 4.4e-05 s⁻¹. The kobs (Epac2^Δ280; 0.1 μM compound) was 4.8e-05 s⁻¹, the kobs (Epac2^Δ280; 0.2 μM compound) was 7.3e-05 s⁻¹ and the kobs (Epac2^Δ280; 0.3 μM compound) was 9.9e-05 s⁻¹. The kobs (Epac2^Δ280; 0.4 μM compound) was 0.000122 s⁻¹, the kobs (Epac2^Δ280; 0.5 μM compound) was 0.000139 s⁻¹ and the kobs (Epac2^Δ280; 0.6 μM compound) was 0.000141 s⁻¹. For the same molecule, the kobs (Epac2^Δ280; 0.7 μM compound) was 0.000159 s⁻¹, the kobs (Epac2^Δ280; 0.8 μM compound) was 0.000171 s⁻¹ and the kobs (Epac2^Δ280; 1 μM compound) was 0.000175 s⁻¹. For the same molecule, the kobs (Epac2^Δ280; 2 μM compound) was 0.000357 s⁻¹, the kobs (Epac2^Δ280; 3 μM compound) was 0.000431 s⁻¹ and the kobs (Epac2^Δ280; 4 μM compound) was 0.000482 s⁻¹. For the same molecule, the kobs (Epac2^Δ280; 5 μM compound) was 0.000505 s⁻¹, the kobs (Epac2^Δ280; 6 μM compound) was 0.000495 s⁻¹ and the kobs (Epac2^Δ280; 7 μM compound) was 0.000524 s⁻¹. It also gave a kobs (Epac2^Δ280; 8 μM compound) of 0.000525 s⁻¹, a kobs (Epac2^Δ280; 10 μM compound) of 0.000559 s⁻¹ and a kobs (Epac2^Δ280; 20 μM compound) of 0.0007 s⁻¹. For the same molecule, the kobs (Epac2^Δ280; 30 μM compound) was 0.000741 s⁻¹, the kobs (Epac2^Δ280; 40 μM compound) was 0.000742 s⁻¹ and the kobs (Epac2^Δ280; 50 μM compound) was 0.000724 s⁻¹. The kobs (Epac2^Δ280; 60 μM compound) was 0.000763 s⁻¹, the kobs (Epac2^Δ280; 70 μM compound) was 0.000779 s⁻¹ and the kobs (Epac2^Δ280; 80 μM compound) was 0.000793 s⁻¹. It also gave a kobs (Epac2^Δ280; 100 μM compound) of 0.000771 s⁻¹, an AC50 (Epac2^Δ280) of 2800 nM and a Rel. kmax (Epac2^Δ280) of 2.5. It also gave a kobs (Epac2^Δ280,K450E; 0.01 μM compound) of 4.6e-05 s⁻¹, a kobs (Epac2^Δ280,K450E; 0.05 μM compound) of 6.3e-05 s⁻¹ and a kobs (Epac2^Δ280,K450E; 0.08 μM compound) of 7.4e-05 s⁻¹. The kobs (Epac2^Δ280,K450E; 0.1 μM compound) was 8e-05 s⁻¹ and 9.8e-05 s⁻¹, the kobs (Epac2^Δ280,K450E; 0.3 μM compound) was 0.000139 s⁻¹ and the kobs (Epac2^Δ280,K450E; 0.4 μM compound) was 0.000171 s⁻¹. For the same molecule, the kobs (Epac2^Δ280,K450E; 0.5 μM compound) was 0.000194 s⁻¹, the kobs (Epac2^Δ280,K450E; 0.6 μM compound) was 0.000231 s⁻¹ and the kobs (Epac2^Δ280,K450E; 0.7 μM compound) was 0.000249 s⁻¹. For the same molecule, the kobs (Epac2^Δ280,K450E; 0.8 μM compound) was 0.000268 s⁻¹, the kobs (Epac2^Δ280,K450E; 1 μM compound) was 0.000297 s⁻¹ and the kobs (Epac2^Δ280,K450E; 2 μM compound) was 0.000427 s⁻¹. It also gave a kobs (Epac2^Δ280,K450E; 3 μM compound) of 0.000527 s⁻¹, a kobs (Epac2^Δ280,K450E; 4 μM compound) of 0.000575 s⁻¹ and a kobs (Epac2^Δ280,K450E; 5 μM compound) of 0.000593 s⁻¹. It also gave a kobs (Epac2^Δ280,K450E; 6 μM compound) of 0.000641 s⁻¹, a kobs (Epac2^Δ280,K450E; 7 μM compound) of 0.000636 s⁻¹ and a kobs (Epac2^Δ280,K450E; 8 μM compound) of 0.00067 s⁻¹. For the same molecule, the kobs (Epac2^Δ280,K450E; 10 μM compound) was 0.000647 s⁻¹, the kobs (Epac2^Δ280,K450E; 20 μM compound) was 0.000817 s⁻¹ and the kobs (Epac2^Δ280,K450E; 30 μM compound) was 0.000851 s⁻¹. It also gave a kobs (Epac2^Δ280,K450E; 40 μM compound) of 0.00083 s⁻¹, a kobs (Epac2^Δ280,K450E; 50 μM compound) of 0.000833 s⁻¹ and a kobs (Epac2^Δ280,K450E; 60 μM compound) of 0.000819 s⁻¹. For the same molecule, the kobs (Epac2^Δ280,K450E; 70 μM compound) was 0.000826 s⁻¹, the kobs (Epac2^Δ280,K450E; 80 μM compound) was 0.000827 s⁻¹ and the kobs (Epac2^Δ280,K450E; 100 μM compound) was 0.000823 s⁻¹.
Cc1ccc(CSc2nc3c(N)ncnc3n2[C@@H]2O[C@@H]3CO[P@](O)(=S)O[C@H]3[C@H]2O)cc1 [S-230, Sp-8-pMeBnT-cAMPS] showed a kobs (Epac2^Δ280; 0.01 μM compound) of 3.1e-05 s⁻¹, a kobs (Epac2^Δ280; 0.03 μM compound) of 5.1e-05 s⁻¹ and a kobs (Epac2^Δ280; 0.04 μM compound) of 5.8e-05 s⁻¹. For the same molecule, the kobs (Epac2^Δ280; 0.05 μM compound) was 6.5e-05 s⁻¹, the kobs (Epac2^Δ280; 0.06 μM compound) was 6.9e-05 s⁻¹ and the kobs (Epac2^Δ280; 0.07 μM compound) was 7.9e-05 s⁻¹. The kobs (Epac2^Δ280; 0.08 μM compound) was 8.9e-05 s⁻¹, the kobs (Epac2^Δ280; 0.1 μM compound) was 0.000108 s⁻¹ and the kobs (Epac2^Δ280; 0.2 μM compound) was 0.000191 s⁻¹. It also gave a kobs (Epac2^Δ280; 0.3 μM compound) of 0.000259 s⁻¹, a kobs (Epac2^Δ280; 0.4 μM compound) of 0.000337 s⁻¹ and a kobs (Epac2^Δ280; 0.5 μM compound) of 0.000361 s⁻¹. The kobs (Epac2^Δ280; 0.6 μM compound) was 0.000448 s⁻¹, the kobs (Epac2^Δ280; 0.7 μM compound) was 0.000484 s⁻¹ and the kobs (Epac2^Δ280; 0.8 μM compound) was 0.000517 s⁻¹. It also gave a kobs (Epac2^Δ280; 1 μM compound) of 0.000599 s⁻¹, a kobs (Epac2^Δ280; 2 μM compound) of 0.000852 s⁻¹ and a kobs (Epac2^Δ280; 3 μM compound) of 0.00104 s⁻¹. For the same molecule, the kobs (Epac2^Δ280; 4 μM compound) was 0.00107 s⁻¹, the kobs (Epac2^Δ280; 5 μM compound) was 0.00111 s⁻¹ and the kobs (Epac2^Δ280; 6 μM compound) was 0.00117 s⁻¹. For the same molecule, the kobs (Epac2^Δ280; 7 μM compound) was 0.00124 s⁻¹, the kobs (Epac2^Δ280; 8 μM compound) was 0.00123 s⁻¹ and the kobs (Epac2^Δ280; 10 μM compound) was 0.00132 s⁻¹. For the same molecule, the kobs (Epac2^Δ280; 20 μM compound) was 0.00148 s⁻¹, the kobs (Epac2^Δ280; 30 μM compound) was 0.00149 s⁻¹ and the kobs (Epac2^Δ280; 40 μM compound) was 0.00149 s⁻¹. It also gave a kobs (Epac2^Δ280; 50 μM compound) of 0.00145 s⁻¹, a kobs (Epac2^Δ280; 60 μM compound) of 0.00145 s⁻¹ and a kobs (Epac2^Δ280; 70 μM compound) of 0.00142 s⁻¹. For the same molecule, the kobs (Epac2^Δ280; 80 μM compound) was 0.00143 s⁻¹, the kobs (Epac2^Δ280; 100 μM compound) was 0.00145 s⁻¹ and the AC50 (Epac2^Δ280) was 70 nM. The Rel. kmax (Epac2^Δ280) was 6.4, the “A (PKA activity)” value (PKA-Iα; concentration 1 μM) was 2.9904 U/mg and the “A (PKA activity)” value (PKA-Iα; concentration 1.00E+01 μM) was 1.9936 U/mg. For the same molecule, the “A (PKA activity)” value (PKA-Iα; concentration 1.00E-01 μM) was 3.8864 U/mg, the “A (PKA activity)” value (PKA-Iα; concentration 1.00E-02 μM) was 2.632 U/mg and the “A (PKA activity)” value (PKA-Iα; concentration 1.00E-03 μM) was 3.2928 U/mg. For the same molecule, the “A (PKA activity)” value (PKA-Iα; concentration 1.00E-05 μM) was 2.7664 U/mg, the “A (PKA activity)” value (PKA-Iα; concentration 5.00E+02 μM) was 2.9232 U/mg and the “A (PKA activity)” value (PKA-IIα; concentration 1 μM) was 8.2345 U/mg. The “A (PKA activity)” value (PKA-IIα; concentration 5 μM) was 1.10E+01 U/mg, the “A (PKA activity)” value (PKA-IIα; concentration 1.00E+01 μM) was 1.22E+01 U/mg and the “A (PKA activity)” value (PKA-IIα; concentration 1.00E+03 μM) was 2.30E+01 U/mg. The “A (PKA activity)” value (PKA-IIα; concentration 1.00E-01 μM) was 5.026 U/mg, the “A (PKA activity)” value (PKA-IIα; concentration 1.00E-02 μM) was 4.542 U/mg and the “A (PKA activity)” value (PKA-IIα; concentration 1.00E-04 μM) was 5.243 U/mg. The “A (PKA activity)” value (PKA-IIα; concentration 1.00E-05 μM) was 3.782 U/mg, the “A (PKA activity)” value (PKA-IIα; concentration 2.50E+02 μM) was 1.76E+01 U/mg and the “A (PKA activity)” value (PKA-IIα; concentration 5.00E+01 μM) was 1.58E+01 U/mg. For the same molecule, the “A (PKA activity)” value (PKA-IIα; concentration 5.00E+02 μM) was 2.11E+01 U/mg.
